5 molecules from patent US7538234B2, “Preparation of Optically active 2-(1-hydroxyethyl)-5-hydroxynaphtho[2,3-b]furan-4, 9-diones having anticancer activities” (Taheebo Japan Co., Ltd., priority 2007, dated 2009) can be followed below.

In series [1] the test system is human lung cancer cell A-549. Kind of series: Cytotoxicity experiment (trypan blue dead cell count, 3 days incubation). To be noted: for EC50: concentration of 50% of dead cells, 3 days incubation. The format is cell-based. Here is the method:
(§1) Cytotoxicity experiments were carried out by using human prostate cancer cell PC-3 (Invest. Urology 17: 16, (1979)), human lung cancer cell A-549 (J. Nat. Cancer Inst. 51: 1417, (1973)) and human breast cancer cell MCF-7 (cr. Table 1). Cells used in the experiments were obtained from Laboratory Products Dept. of Dainippon Pharmaceuticals Inc. (now Dainippon Sumitomo Pharma Co., Ltd.). • (1) In 3 cm plastic petri dish, 5×10^6 of the above human origin cancer cell was incubated at 37° C. under 5% CO2 gas on an incubation medium wherein 10% fetal bovine serum (FBS) was added to a basal medium Dulbecco's modified eagle medium (DMEM). • (2) It was confirmed 1 day after the incubation that the cells were adhered to the petri dish. All incubation media were discarded, and to the cells were added fresh media (1 ml) to give reaction media. Thereto was added a solution of a test compound in DMSO (2 μl), and the mixture was incubated for 3 days under the same conditions as in the above (1). • (3) 3 days after the incubation, all cells were collected with a scrapper, and the mixture was softly stirred. Then, an aliquot (0.1 ml) was taken into a tube, and thereto was added 0.25% trypan blue solution (0.1 ml), and the mixture was stirred and then allowed to stand for 10 minutes. Both of dead and live cells suspended in the mixture were observed using a white cell counter under light microscope to calculate cytotoxicity effects to the cancer cells. • (4) The number of the observed dead cells was calculated on the basis of the total number of cells observed as 100% using a white cell counter. Each bioactivity evaluation of each compound was represented by EC50 value (μM), which refers to a concentration of 50% of dead cells (cf. Table 1).

The test system of series [2] is human breast cancer cell MCF-7. Described as above. The format is cell-based. To be noted: for EC50: concentration of 50% of dead cells, 3 days incubation. Here is the method: as §1
Series [3] deals with human prostate cancer cell PC-3. Described as above. The format is cell-based. To be noted: for EC50: concentration of 50% of dead cells, 3 days incubation. Here is the method: as §1
A further series relates to Raji cell. Kind of series: Survival of Raji cells in the EBV-EA activation test. The format is cell-based, human. The conditions noted are these: 2 days. Here is the method: (§2) Additionally, cancer-preventing effects about Epstein-Barr virus early antigen (EBV-EA) using Raji cell, which was available from George Klein, Karolinska Institute, Sweden, were studied (cf. Table 2). • (1) To a reaction culture (1 ml) in a 15 ml plastic tube were added 1×10^6 of lymphoma Raji cells of human origin, and the mixture was incubated for 2 days at 37° C. under 5% CO2 gas. The reaction culture was a solution wherein butyric acid was added to RPMI-1640 (Roswell Park Memorial Institute) medium containing 8% FBS in a concentration of 4 mM. In case of positive controls, to the reaction culture was added 12-O-tetradecanoylphorbol-13-acetate (TPA) (20 ng, 32 pmol). • (2) Analysis was carried out by adding test compounds to the reaction culture in the above (1) with TPA in 1000, 500, 100 and 10 times higher concentration by mole (32, 16, 3.2 and 0.32 nmol) to TPA and incubating in a similar manner to the above. • (3) 2 days after incubation, a reaction tube was centrifuged at 1000 rpm for 10 minutes, and supernatants were discarded to collect reaction cells at the bottom of the tube, and thereto was added a phosphate buffered saline (0.1 ml) and the mixture was mixed well. To a glass slide for pathological pieces was added the mixture (5 μl), and then the mixture was air-dried to dryness. • (4) An antigen-antibody reaction was carried out at 37° C. in wet process by adding a diluted serum (1 μl) of patient with epipharynx carcinoma to the dried mixture. 45 minutes after the reaction, the resultant was washed with neutral phosphate buffer three times and then air-dried in a similar manner to the above. Then, thereto was added human blood gamma globulin antibody (1 μl), wherein a fluorescent substance was bound, to carry out an antigen-antibody reaction. 45 minutes after the reaction, the mixture was washed with neutral phosphate buffer to give a test sample. • (5) The test sample on a glass slide was observed under fluorescent light microscope. Both of dead and live cells were calculated, and the survival ratio in percentage is shown as a cancer-preventing activity, and the data of each sample were compared (cf. Table 2).

Series [4] concerns Epstein-Barr virus early antigen (EBV-EA). Kind of series: Inhibitory effect of TPA-induced EBV-EA activation in Raji cells. The conditions noted are these: for EBV-EA-positive cell: Raji cells, 2 days. The format is cell-based, human. Here is the method:
as §2

Setting [5] is: compound concentration 500 (molar ratio/32 pmol TPA).
Where [6] appears, read: compound concentration 1000 (molar ratio/32 pmol TPA).
[7] abbreviates: compound concentration 10 (molar ratio/32 pmol TPA).
Setting [8] is: compound concentration 100 (molar ratio/32 pmol TPA).

Regarding `CC(O)c1cc2c(o1)C(=O)c1cccc(O)c1C2=O` (racemic) [Racemate NQ801, 2-(1-hydroxyethyl)-5-hydroxynaphtho[2,3-b]furan-4,9-dione], the EC50 in series [1] (Homo sapiens, A549, 72 h) amounted to 3240 nM; in series [2] (Homo sapiens, MCF7, 72 h), 8500 nM; in series [3] (Homo sapiens, 72 h), 560 nM. For the same molecule, the “% survival (value in parentheses)” value in the series on Raji cell (setting [5]) is given as “(70) %”; in the series with Raji cell (setting [6]), 60%. Further, the EBV-EA-positive cell was 52.9% in series [4] (setting [7]), 20.7% in series [4] (setting [8]), 6.2% in series [4] (setting [5]) and 0% in series [4] (setting [6]).

For the molecule `C[C@@H](O)c1cc2c(o1)C(=O)c1cccc(O)c1C2=O` [(R)-NQ801], the EC50 in series [1] amounted to 3000 nM; in series [2], 9300 nM; in series [3] it was 930 nM. Also, the “% survival (value in parentheses)” value in the series on Raji cell (setting [6]) is 70%. For the same molecule, the EBV-EA-positive cell in series [4] (setting [7]) amounted to 59.4%; in series [4] (setting [8]), 24.7%; in series [4] (setting [5]), 9.7%; in series [4] (setting [6]), 0%.

For `CO[C@@]12[C@H](COC(N)=O)C3=C(C(=O)C(C)=C(N)C3=O)N1C[C@@H]1N[C@@H]12` [Mitomycin], the EC50 came out at 430 nM in series [1] (Homo sapiens, A549, 72 h); 960 nM in series [2] (Homo sapiens, MCF7, 72 h); 140 nM in series [3] (Homo sapiens, 72 h).

As to `C[C@H](O)c1cc2c(o1)C(=O)c1cccc(O)c1C2=O` [(S)-NQ801, (S)-2-(1-hydroxyethyl)-5-hydroxynaphtho[2,3-b]-furan-4,9-dione], the “cytotoxicity compared with mitomycin” value in series [1] (A-549, statement in words) is reported as “same cytotoxicity as mitomycin”; in series [2] (MCF-7, statement in words) it was “same cytotoxicity as mitomycin”; in series [3] (PC-3, statement in words), “same cytotoxicity as mitomycin”. The EC50 in series [1] (Homo sapiens, A549, 72 h) is 960 nM; in series [2] (Homo sapiens, MCF7, 72 h), 3500 nM; in series [3] (Homo sapiens, 72 h) it was 140 nM. In addition, the “% survival (value in parentheses)” value in the series with Raji cell (setting [5]) is on record as “(60) %”; in the series with Raji cell (setting [6]) it was 60%. Moreover, the EBV-EA-positive cell in series [4] (setting [7]) stood at 50%; in series [4] (setting [8]) it was 16.9%; in series [4] (setting [5]) it was 4.4%; in series [4] (setting [6]) it was 0%. The “inhibition of EBV-EA expression” value in series [4] (statement in words) was “inhibits EBV-EA expression”.

`CC1(C)CCC2=C(O1)c1ccccc1C(=O)C2=O` [β-Lapachone, 3,4-dihydro-2,2-dimethyl-2H-naphtho(1,2-b)pyrane-5,6-dione]: the “% survival (value in parentheses)” value in the series with Raji cell (setting [6]) was determined as 50%. The EBV-EA-positive cell in series [4] (setting [7]) was 73.1%; in series [4] (setting [8]), 50.4%; in series [4] (setting [5]) it was 21.7%; in series [4] (setting [6]), 4.7%.

For orientation: EC50 means the concentration giving half of the maximal effect. Read a low EC50 as an effect from little substance.
